Test results published in the NIST ThermoML archive (doi:10.1016/j.fluid.2014.11.020).
± gives the expanded uncertainty stated by the source.

Assay: activity coefficient (dimensionless); of the first substance listed, at infinite dilution; xn = mol fraction of the nth substance listed
Settings: Liquid, Chromatography, x1 = 0

| Structure (SMILES) | activity coefficient (323.15 K) | activity coefficient (333.15 K) | activity coefficient (343.15 K) |
| --- | --- | --- | --- |
| CCCC(C)=O [pentan-2-one] + CCCOC[n+]1ccn(Cc2ccccc2)c1.N#C[N-]C#N | 1.45 ± 0.1 | 1.51 ± 0.1 | 1.51 ± 0.1 |
| CCCC(C)=O [pentan-2-one] + CCCOC[n+]1ccn(Cc2ccccc2)c1.O=S(=O)([N-]S(=O)(=O)C(F)(F)F)C(F)(F)F | 0.46 ± 0.04 | 0.42 ± 0.04 | 0.4 ± 0.03 |
| CCCC(C)=O [pentan-2-one] + CN(C)c1cc[n+](COCCCOC[n+]2ccc(N(C)C)cc2)cc1.O=S(=O)([N-]S(=O)(=O)C(F)(F)F)C(F)(F)F.O=S(=O)([N-]S(=O)(=O)C(F)(F)F)C(F)(F)F | 0.69 ± 0.05 | 0.7 ± 0.05 | 0.71 ± 0.05 |
| CCCC(C)=O [pentan-2-one] + Cn1cc[n+](COCCCOC[n+]2ccn(C)c2)c1.N#C[N-]C#N.N#C[N-]C#N | 3.5 ± 0.24 | 3.5 ± 0.24 | 3.49 ± 0.24 |
| CCCC(C)=O [pentan-2-one] + Cn1cc[n+](COCCCOC[n+]2ccn(C)c2)c1.O=S(=O)([N-]S(=O)(=O)C(F)(F)F)C(F)(F)F.O=S(=O)([N-]S(=O)(=O)C(F)(F)F)C(F)(F)F | 0.62 ± 0.04 | 0.65 ± 0.04 | 0.63 ± 0.04 |
| CCCC(C)=O [pentan-2-one] + N#C[N-]C#N.N#C[N-]C#N.c1ccc(Cn2cc[n+](COCCCOC[n+]3ccn(Cc4ccccc4)c3)c2)cc1 | 3.1 ± 0.21 | 3.05 ± 0.21 | 3.08 ± 0.21 |
| CCC(=O)CC [pentan-3-one] + CCCCCCCCn1cc[n+](COCCC)c1C.N#C[N-]C#N | 0.88 ± 0.06 | 0.89 ± 0.06 | 0.91 ± 0.06 |
| CCC(=O)CC [pentan-3-one] + CCCCCCCCn1cc[n+](COCCC)c1C.O=S(=O)([N-]S(=O)(=O)C(F)(F)F)C(F)(F)F | 0.45 ± 0.04 | 0.45 ± 0.04 | 0.47 ± 0.04 |
| CCC(=O)CC [pentan-3-one] + CCCCCCCCn1cc[n+](COCCCOC[n+]2ccn(CCCCCCCC)c2C)c1C.N#C[N-]C#N.N#C[N-]C#N | 0.75 ± 0.05 | 0.76 ± 0.05 | 0.78 ± 0.05 |
| CCC(=O)CC [pentan-3-one] + CCCCCCCCn1cc[n+](COCCCOC[n+]2ccn(CCCCCCCC)c2C)c1C.O=S(=O)([N-]S(=O)(=O)C(F)(F)F)C(F)(F)F.O=S(=O)([N-]S(=O)(=O)C(F)(F)F)C(F)(F)F | 0.28 ± 0.03 | 0.28 ± 0.03 | 0.29 ± 0.03 |
| CCC(=O)CC [pentan-3-one] + CCCOC[n+]1ccc(N(C)C)cc1.O=S(=O)([N-]S(=O)(=O)C(F)(F)F)C(F)(F)F | 0.72 ± 0.05 | 0.75 ± 0.05 | 0.76 ± 0.05 |
| CCC(=O)CC [pentan-3-one] + CCCOC[n+]1ccn(C)c1.F[B-](F)(F)F | 3.34 ± 0.23 | 3.36 ± 0.23 | 3.41 ± 0.23 |
| CCC(=O)CC [pentan-3-one] + CCCOC[n+]1ccn(C)c1.N#C[N-]C#N | 2.14 ± 0.15 | 2.19 ± 0.15 | 2.29 ± 0.16 |
| CCC(=O)CC [pentan-3-one] + CCCOC[n+]1ccn(C)c1.O=S(=O)([N-]S(=O)(=O)C(F)(F)F)C(F)(F)F | 0.68 ± 0.05 | 0.69 ± 0.05 | 0.72 ± 0.05 |
| CCC(=O)CC [pentan-3-one] + CCCOC[n+]1ccn(Cc2ccccc2)c1.F[B-](F)(F)F | 1.73 ± 0.12 | 1.74 ± 0.12 | 1.75 ± 0.12 |
| CCC(=O)CC [pentan-3-one] + CCCOC[n+]1ccn(Cc2ccccc2)c1.N#C[N-]C#N | 1.33 ± 0.09 | 1.4 ± 0.09 | 1.43 ± 0.09 |

| Structure (SMILES) | activity coefficient (323.15 K) | activity coefficient (333.15 K) | activity coefficient (343.15 K) |
| --- | --- | --- | --- |
| CCC(=O)CC [pentan-3-one] + CCCOC[n+]1ccn(Cc2ccccc2)c1.O=S(=O)([N-]S(=O)(=O)C(F)(F)F)C(F)(F)F | 0.43 ± 0.04 | 0.43 ± 0.04 | 0.44 ± 0.04 |
| CCC(=O)CC [pentan-3-one] + CN(C)c1cc[n+](COCCCOC[n+]2ccc(N(C)C)cc2)cc1.O=S(=O)([N-]S(=O)(=O)C(F)(F)F)C(F)(F)F.O=S(=O)([N-]S(=O)(=O)C(F)(F)F)C(F)(F)F | 0.67 ± 0.05 | 0.69 ± 0.05 | 0.7 ± 0.05 |
| CCC(=O)CC [pentan-3-one] + Cn1cc[n+](COCCCOC[n+]2ccn(C)c2)c1.N#C[N-]C#N.N#C[N-]C#N | 3.39 ± 0.23 | 3.49 ± 0.24 | 3.46 ± 0.24 |
| CCC(=O)CC [pentan-3-one] + Cn1cc[n+](COCCCOC[n+]2ccn(C)c2)c1.O=S(=O)([N-]S(=O)(=O)C(F)(F)F)C(F)(F)F.O=S(=O)([N-]S(=O)(=O)C(F)(F)F)C(F)(F)F | 0.6 ± 0.04 | 0.63 ± 0.04 | 0.63 ± 0.04 |
| CCC(=O)CC [pentan-3-one] + N#C[N-]C#N.N#C[N-]C#N.c1ccc(Cn2cc[n+](COCCCOC[n+]3ccn(Cc4ccccc4)c3)c2)cc1 | 2.88 ± 0.2 | 2.89 ± 0.2 | 2.91 ± 0.2 |
| CCCO [propan-1-ol] + CCCCCCCCn1cc[n+](COCCC)c1C.N#C[N-]C#N | 0.4 ± 0.03 | 0.4 ± 0.03 | 0.39 ± 0.03 |
| CCCO [propan-1-ol] + CCCCCCCCn1cc[n+](COCCC)c1C.O=S(=O)([N-]S(=O)(=O)C(F)(F)F)C(F)(F)F | 1.16 ± 0.07 | 1.06 ± 0.07 | 0.98 ± 0.06 |
| CCCO [propan-1-ol] + CCCCCCCCn1cc[n+](COCCCOC[n+]2ccn(CCCCCCCC)c2C)c1C.N#C[N-]C#N.N#C[N-]C#N | 0.32 ± 0.03 | 0.32 ± 0.03 | 0.31 ± 0.03 |
| CCCO [propan-1-ol] + CCCCCCCCn1cc[n+](COCCCOC[n+]2ccn(CCCCCCCC)c2C)c1C.O=S(=O)([N-]S(=O)(=O)C(F)(F)F)C(F)(F)F.O=S(=O)([N-]S(=O)(=O)C(F)(F)F)C(F)(F)F | 0.72 ± 0.05 | 0.65 ± 0.04 | 0.77 ± 0.05 |
| CCCO [propan-1-ol] + CCCOC[n+]1ccc(N(C)C)cc1.O=S(=O)([N-]S(=O)(=O)C(F)(F)F)C(F)(F)F | 1.93 ± 0.13 | 1.72 ± 0.12 | 1.53 ± 0.1 |
| CCCO [propan-1-ol] + CCCOC[n+]1ccn(C)c1.F[B-](F)(F)F | 3.1 ± 0.21 | 2.79 ± 0.19 | 2.53 ± 0.17 |
| CCCO [propan-1-ol] + CCCOC[n+]1ccn(C)c1.N#C[N-]C#N | 0.97 ± 0.06 | 0.95 ± 0.06 | 0.92 ± 0.06 |
| CCCO [propan-1-ol] + CCCOC[n+]1ccn(C)c1.O=S(=O)([N-]S(=O)(=O)C(F)(F)F)C(F)(F)F | 1.86 ± 0.13 | 1.66 ± 0.11 | 1.5 ± 0.1 |
| CCCO [propan-1-ol] + CCCOC[n+]1ccn(Cc2ccccc2)c1.F[B-](F)(F)F | 2.15 ± 0.15 | 1.92 ± 0.13 | 1.78 ± 0.12 |
| CCCO [propan-1-ol] + CCCOC[n+]1ccn(Cc2ccccc2)c1.N#C[N-]C#N | 0.84 ± 0.05 | 0.7 ± 0.05 | 0.69 ± 0.05 |
| CCCO [propan-1-ol] + CN(C)c1cc[n+](COCCCOC[n+]2ccc(N(C)C)cc2)cc1.O=S(=O)([N-]S(=O)(=O)C(F)(F)F)C(F)(F)F.O=S(=O)([N-]S(=O)(=O)C(F)(F)F)C(F)(F)F | 1.51 ± 0.1 | 1.37 ± 0.09 | 1.22 ± 0.08 |
